Source: patent US9463247B2, “Branched alkyl and cycloalkyl terminated biodegradable lipids for the delivery of active agents” (ALNYLAM PHARMACEUTICALS, INC., priority 2011, dated 2016)

Tested on: Factor VII (FVII)
Test: In vivo determination of efficacy of lipid formulations: FVII knockdown in mice (Biophen FVII chromogenic assay)
Parameters: species or system mouse (C57Bl/6)
Conditions: FVII siRNA lipid formulation containing the cationic lipid; i.v. lateral tail vein; female C57Bl/6 mice; serum 24 hours later; dose resulting in a 50% reduction in plasma FVII levels compared to control animals
Description: Test formulations were prepared using the following in-line mixing method: […]
Individual and separate stock solutions are prepared—one containing lipid and the other siRNA. Lipid stock containing lipid A, DSPC, cholesterol and PEG lipid is prepared by solubilized in 90% ethanol. The remaining 10% is low pH citrate buffer. The concentration of the lipid stock is 4 mg/mL. The pH of this citrate buffer can range between pH 3-5, depending on the type of fusogenic lipid employed. The siRNA is also solubilized in citrate buffer at a concentration of 4 mg/mL. For small scale, 5 mL of each stock solution is prepared.
Stock solutions are completely clear and lipids must be completely solubilized before combining with siRNA. Therefore stock solutions may be heated to completely solubilize the lipids. The siRNAs used in the process may be unmodified oligonucleotides or modified and may be conjugated with lipophilic moieties such as cholesterol.
The individual stocks are combined by pumping each solution to a T-junction. A dual-head Watson-Marlow pump is used to simultaneously control the start and stop of the two streams. A 1.6 mm polypropylene tubing is further downsized to a 0.8 mm tubing in order to increase the linear flow rate. The polypropylene line (ID=0.8 mm) are attached to either side of a T-junction. The polypropylene T has a linear edge of 1.6 mm for a resultant volume of […]. Each of the large ends (1.6 mm) of polypropylene line is placed into test tubes containing either solubilized lipid stock or solubilized siRNA. After the T-junction a single tubing is placed where the combined stream will emit. The tubing is then extending into a container with 2× volume of PBS. The PBS is rapidly stirring. The flow rate for the pump is at a setting of 300 rpm or 110 mL/min. Ethanol is removed and exchanged for PBS by dialysis. The lipid formulations are then concentrated using centrifugation or diafiltration to an appropriate working concentration.
Test formulations are initially assessed for their FVII knockdown in female 7-9 week old, 15-25 g, female C57Bl/6 mice at 0.1, 0.3, 1.0 and 5.0 mg/kg with 3 mice per treatment group. All studies include animals receiving either phosphate-buffered saline (PBS, Control group) or a benchmark formulation. Formulations are diluted to the appropriate concentration in PBS immediately prior to testing. Mice are weighed and the appropriate dosing volumes calculated (10 μl/g body weight). Test and benchmark formulations as well as PBS (for Control animals) are administered intravenously via the lateral tail vein. Animals are anesthetised 24 hours later with an intraperitoneal injection of Ketamine/Xylazine and 500-700 μl of blood is collected by cardiac puncture into serum separator tubes (BD Microtainer). Blood is centrifuged at 2,000×g for 10 minutes at 15° C. and serum is collected and stored at −70° C. until analysis. Serum samples are thawed at 37° C. for 30 minutes, diluted in PBS and aliquoted into 96-well assay plates. Factor VII levels are assessed using a chromogenic assay (Biophen FVII kit, Hyphen BioMed) according to manufacturer's instructions and absorbance is measured in a microplate reader equipped with a 405 nm wavelength filter. Plasma FVII levels are quantified and ED50s (dose resulting in a 50% reduction in plasma FVII levels compared to control animals) calculated using a standard curve generated from a pooled sample of serum from control animals. Those formulations of interest showing high levels of FVII knockdown (ED50<<0.1 mg/kg) are re-tested in independent studies at a lower dose range to confirm potency and establish ED50 levels.

SMILES | ED50 (Mouse FVII) [mg/kg]
CCCCCC(CCCC)OC(=O)CCCCCCCCC(CCCCCCCCC(=O)OC(CCCC)CCCCC)OC(=O)CCCN(C)C (centres unmarked) | 0.009
CCCCC(CCCC)OC(=O)CCCCCCCCC(CCCCCCCCC(=O)OC(CCCC)CCCC)OC(=O)CCCN(C)C | 0.010
CN(C)CCCC(=O)OC(CCCCCCCCCOC(=O)CCC1CCCC1)CCCCCCCCCOC(=O)CCC1CCCC1 | 0.023
CN(C)CCCC(=O)OC(CCCCCCCCCOC(=O)C1CCCC1)CCCCCCCCCOC(=O)C1CCCC1 | >0.30
CCCCC(CC)C(=O)OCCCCCCCCCC(CCCCCCCCCOC(=O)C(CC)CCCC)OC(=O)CCCN(C)C (centres unmarked) [drawing 162] | 0.088
CCCCC(C)C(=O)OCCCCCCCCCC(CCCCCCCCCOC(=O)C(C)CCCC)OC(=O)CCCN(C)C (centres unmarked) | >0.30
CC(C)CC(CC(C)C)OC(=O)CCCCCCCCCCCC(CCCCCCCCCCCC(=O)OC(CC(C)C)CC(C)C)OC(=O)CCCN(C)C | 0.020
CN(C)CCCC(=O)OC(CCCCCC(=O)OC1CCCCC1)CCCCCC(=O)OC1CCCC1 (centres unmarked) | >0.30
CCCCCC(CC)C(=O)OCCCCCCCCCC(CCCCCCCCCOC(=O)C(CC)CCCCC)OC(=O)CCCN(C)C (centres unmarked) | 0.008
CCCCCCOC(=O)CCCCCCCCCCCC(CCCCCCCCCCCC(=O)OCCCCCC)OC(=O)CCCN(C)C | 0.013
CN(C)CCCC(=O)OC(CCCCCCCCC(=O)OC1CCCC1)CCCCCCCCC(=O)OC1CCCC1 | >0.30
CN(C)CCCC(=O)OC(CCCCCC(=O)OC1CCCC1)CCCCCC(=O)OC1CCCC1 | >0.30
CC(OCCCCCCCCCC(CCCCCCCCCOC(=O)C1CCCCC1)OC(=O)CCCN(C)C)C1CCCCC1 (centres unmarked) | 0.032
CCCCC(CC)C(=O)OCCCCCCCCCC(CCCCCCCCCOC(=O)C(CC)CCCC)OC(=O)CCCN(C)C (centres unmarked) [drawing 149] | 0.005
CN(C)CCCC(=O)OC(CCCCCCCCC(=O)OC1CCCCC1)CCCCCCCCC(=O)OC1CCCCC1 | >0.30
CN(C)CCCC(=O)OC(CCCCCCCCC(=O)OCCCC1CCCC1)CCCCCCCCC(=O)OCCCC1CCCC1 | 0.12
CCCCC(CCCC)OC(=O)CCCCCC(CCCCCC(=O)OC(CCCC)CCCC)OC(=O)CCCN(C)C | >0.30
